Results taken from PMC8584989 (International Journal of Molecular Sciences, 2021).
Like-named read-outs stand apart in the source and are kept apart here.

Assays:
ABCB1 [1] = target: T1, ABCB1 (Homo sapiens, UniProt P08183); experiment: Inhibitory accumulation assay in MDCKII-ABCB1 cells; assay type: cell-based
Procedure: Accumulation assays were performed as described previously. […] The daunorubicin and mitoxantrone accumulation assays were performed in above mentioned cell lines and were also adopted to primary NSCLC cultures. […] Cells were incubated up to 70-80% confluence for approximately 24 h. […] The cells there trypsinized on ice, resuspended with 2% FBS in cold PBS solution and then fluorescence was detected using flow cytometer (BD FACSCanto II, Allschwil, Switzerland). […] For data presentation, the ratios of relative fluorescence units (RFUs) from treated samples to RFUs from vehicle-treated (control) cells were computed generating “relative substrate accumulation”.

CYP2C8 = target: T2, CYP2C8 (Homo sapiens, UniProt P10632); experiment: Vivid CYP450 Screening Kit, recombinant CYP2C8; assay type: in vitro ADME; conditions: recombinant enzyme; read-out: CYP2C8 inhibition IC50
T2 construct: purchased Thermo Fisher Scientific
Procedure: CYP inhibitory assay was performed using Vivid CYP450 screening kit as described previously. The kits consist of microsomal fraction containing human CYP isoforms, human CYP reductase and in several cases cytochrome b5. Experiments were performed following the manufacturer’s protocol on black 96-well plates using kinetic mode. […] Then, the master mix (CYP isoenzyme with an NADPH regeneration system in buffer) was added in each well and plate was pre-incubated for 10 min. The reaction was started with the mixture of NADP^+ and Vivid substrate and the fluorescence of samples was measured in 1 min interval for 60 min using an Infinite M200 Pro microplate reader (Tecan, Männedorf, Switzerland). Data from linear phase (15 min) were used for data evaluation.

ABCB1 [2] = target: T1, ABCB1; experiment: MDCKII cellular monolayer transport assay; assay type: in vitro ADME; conditions: 1 µM tepotinib, 4 h, asymmetry aborted by 1 µM LY335979
Procedure: (§1) This assay was performed as described previously. […] The Transwells were incubated until full confluence for 7 days with media replacement every 2 days. Prior addition of tested drugs, inserts were washed with 1 × PBS on both apical and basal sides. […] Samples were then collected from the acceptor chambers at 0.5, 1, 2 and 4 h intervals. Cellular monolayers’ integrity was verified using fluorescein isothiocyanate-labeled dextran (MW = 40 kDa) accepting leakage up to 5% per hour.

ABCC1 = ABCC1 (Homo sapiens, UniProt P33527); experiment: MDCKII cellular monolayer transport assay; assay type: in vitro ADME; conditions: 1 µM tepotinib, 4 h
Procedure: as §1

ABCG2 = target: T3, ABCG2 (Homo sapiens, UniProt Q9UNQ0); experiment: MDCKII cellular monolayer transport assay; assay type: in vitro ADME; conditions: 1 µM tepotinib, 4 h
T3 sequence (Q9UNQ0 1-655): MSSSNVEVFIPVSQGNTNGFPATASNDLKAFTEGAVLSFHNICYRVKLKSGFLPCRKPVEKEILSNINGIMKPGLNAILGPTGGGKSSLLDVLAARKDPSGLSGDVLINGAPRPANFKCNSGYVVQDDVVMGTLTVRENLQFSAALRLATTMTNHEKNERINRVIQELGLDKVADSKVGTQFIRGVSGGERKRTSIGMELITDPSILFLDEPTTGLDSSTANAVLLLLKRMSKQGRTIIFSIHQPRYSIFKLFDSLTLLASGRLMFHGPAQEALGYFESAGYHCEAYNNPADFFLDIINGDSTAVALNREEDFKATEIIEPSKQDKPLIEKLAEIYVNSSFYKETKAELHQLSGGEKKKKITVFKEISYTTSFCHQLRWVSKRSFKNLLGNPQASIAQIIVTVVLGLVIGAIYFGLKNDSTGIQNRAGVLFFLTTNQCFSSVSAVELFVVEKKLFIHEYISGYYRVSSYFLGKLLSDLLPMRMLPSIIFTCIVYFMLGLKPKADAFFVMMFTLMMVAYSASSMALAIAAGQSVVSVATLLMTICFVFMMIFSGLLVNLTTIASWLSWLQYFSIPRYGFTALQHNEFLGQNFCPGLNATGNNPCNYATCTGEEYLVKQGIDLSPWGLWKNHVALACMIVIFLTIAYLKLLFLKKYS
Procedure: as §1

T1 sequence (P08183 whole entry): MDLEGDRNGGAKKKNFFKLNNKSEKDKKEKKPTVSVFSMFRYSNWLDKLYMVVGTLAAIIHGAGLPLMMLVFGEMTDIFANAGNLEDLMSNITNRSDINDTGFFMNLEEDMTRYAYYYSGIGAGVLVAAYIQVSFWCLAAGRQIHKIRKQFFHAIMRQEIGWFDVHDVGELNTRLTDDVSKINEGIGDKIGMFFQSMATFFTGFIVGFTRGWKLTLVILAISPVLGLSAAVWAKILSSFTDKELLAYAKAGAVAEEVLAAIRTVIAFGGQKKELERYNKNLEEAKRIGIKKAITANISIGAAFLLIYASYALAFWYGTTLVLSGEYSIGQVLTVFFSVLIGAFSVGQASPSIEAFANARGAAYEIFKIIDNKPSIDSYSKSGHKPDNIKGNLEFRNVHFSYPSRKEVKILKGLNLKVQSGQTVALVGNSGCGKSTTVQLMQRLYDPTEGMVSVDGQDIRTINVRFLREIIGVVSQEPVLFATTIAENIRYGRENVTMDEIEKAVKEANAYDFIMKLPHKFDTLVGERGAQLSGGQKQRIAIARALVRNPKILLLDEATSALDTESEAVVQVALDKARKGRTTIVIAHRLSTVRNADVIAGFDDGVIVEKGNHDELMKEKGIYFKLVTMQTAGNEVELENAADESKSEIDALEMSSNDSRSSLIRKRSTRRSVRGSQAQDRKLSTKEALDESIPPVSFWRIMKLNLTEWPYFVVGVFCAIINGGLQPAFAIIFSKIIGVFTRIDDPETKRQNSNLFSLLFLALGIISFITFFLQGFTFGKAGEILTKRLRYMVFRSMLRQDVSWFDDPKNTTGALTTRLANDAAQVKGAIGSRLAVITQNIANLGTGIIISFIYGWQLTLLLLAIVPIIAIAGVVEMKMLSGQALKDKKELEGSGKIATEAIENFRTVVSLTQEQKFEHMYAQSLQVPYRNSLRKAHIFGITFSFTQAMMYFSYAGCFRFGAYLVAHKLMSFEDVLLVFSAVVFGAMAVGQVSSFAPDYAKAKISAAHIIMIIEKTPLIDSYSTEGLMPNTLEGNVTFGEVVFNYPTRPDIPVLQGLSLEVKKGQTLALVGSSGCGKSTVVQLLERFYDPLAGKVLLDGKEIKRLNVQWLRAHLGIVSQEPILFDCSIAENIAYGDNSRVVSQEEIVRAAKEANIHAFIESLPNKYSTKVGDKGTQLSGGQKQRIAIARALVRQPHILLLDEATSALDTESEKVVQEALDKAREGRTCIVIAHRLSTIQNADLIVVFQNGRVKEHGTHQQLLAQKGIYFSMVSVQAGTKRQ
Sequence of ABCC1 (P33527 whole entry): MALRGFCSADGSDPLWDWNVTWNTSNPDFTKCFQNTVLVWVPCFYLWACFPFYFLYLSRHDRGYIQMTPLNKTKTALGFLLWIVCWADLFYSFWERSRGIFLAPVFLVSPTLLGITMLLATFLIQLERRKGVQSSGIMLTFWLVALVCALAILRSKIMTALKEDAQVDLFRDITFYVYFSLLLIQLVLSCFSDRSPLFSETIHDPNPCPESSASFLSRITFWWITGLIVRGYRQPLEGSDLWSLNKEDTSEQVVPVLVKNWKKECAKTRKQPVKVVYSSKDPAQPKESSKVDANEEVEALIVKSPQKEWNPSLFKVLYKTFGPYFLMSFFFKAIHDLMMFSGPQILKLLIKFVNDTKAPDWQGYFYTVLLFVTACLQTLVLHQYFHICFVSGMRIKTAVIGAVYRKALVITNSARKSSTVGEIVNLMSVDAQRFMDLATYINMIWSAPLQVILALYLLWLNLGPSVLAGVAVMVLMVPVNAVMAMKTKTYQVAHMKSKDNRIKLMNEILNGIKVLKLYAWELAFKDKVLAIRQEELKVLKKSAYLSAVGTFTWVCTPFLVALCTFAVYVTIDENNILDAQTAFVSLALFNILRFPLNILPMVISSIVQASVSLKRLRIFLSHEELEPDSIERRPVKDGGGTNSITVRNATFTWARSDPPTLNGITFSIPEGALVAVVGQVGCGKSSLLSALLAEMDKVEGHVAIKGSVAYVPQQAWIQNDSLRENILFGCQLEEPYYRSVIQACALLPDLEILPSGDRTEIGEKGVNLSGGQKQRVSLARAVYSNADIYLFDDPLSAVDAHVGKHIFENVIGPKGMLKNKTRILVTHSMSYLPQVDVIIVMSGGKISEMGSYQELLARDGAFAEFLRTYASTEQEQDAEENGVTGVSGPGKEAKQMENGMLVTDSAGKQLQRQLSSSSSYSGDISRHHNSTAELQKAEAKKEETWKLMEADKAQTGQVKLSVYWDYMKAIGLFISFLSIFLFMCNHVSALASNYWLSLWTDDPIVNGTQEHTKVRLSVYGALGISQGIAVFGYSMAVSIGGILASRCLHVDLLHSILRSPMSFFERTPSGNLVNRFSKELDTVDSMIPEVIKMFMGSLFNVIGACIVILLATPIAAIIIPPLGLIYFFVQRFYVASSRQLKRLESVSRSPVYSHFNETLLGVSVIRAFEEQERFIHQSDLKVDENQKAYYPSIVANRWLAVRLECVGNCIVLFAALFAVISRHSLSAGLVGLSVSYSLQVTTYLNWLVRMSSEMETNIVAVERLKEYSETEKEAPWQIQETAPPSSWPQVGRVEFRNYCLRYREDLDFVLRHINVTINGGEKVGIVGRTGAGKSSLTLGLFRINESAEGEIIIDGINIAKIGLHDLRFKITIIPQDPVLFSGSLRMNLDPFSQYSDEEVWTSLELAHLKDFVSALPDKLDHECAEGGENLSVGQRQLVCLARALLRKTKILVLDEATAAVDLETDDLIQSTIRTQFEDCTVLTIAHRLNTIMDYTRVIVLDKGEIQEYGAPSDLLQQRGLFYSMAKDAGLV
T2 sequence (P10632 whole entry): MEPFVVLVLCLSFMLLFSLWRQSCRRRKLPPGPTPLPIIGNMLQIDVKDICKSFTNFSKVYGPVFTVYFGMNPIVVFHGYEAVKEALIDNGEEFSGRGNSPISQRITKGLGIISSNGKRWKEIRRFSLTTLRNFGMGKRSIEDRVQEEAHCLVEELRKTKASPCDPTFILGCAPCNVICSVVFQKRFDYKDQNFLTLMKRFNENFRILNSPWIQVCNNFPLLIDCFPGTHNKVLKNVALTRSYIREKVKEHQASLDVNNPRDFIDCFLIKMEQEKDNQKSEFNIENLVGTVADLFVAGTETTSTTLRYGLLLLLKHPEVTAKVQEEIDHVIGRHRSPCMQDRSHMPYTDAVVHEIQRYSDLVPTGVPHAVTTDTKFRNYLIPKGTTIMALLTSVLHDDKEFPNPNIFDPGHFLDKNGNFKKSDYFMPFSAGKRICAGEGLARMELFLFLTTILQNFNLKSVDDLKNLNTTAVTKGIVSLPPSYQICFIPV

**Q.** Which IC50 (ABCB1 [1]; 2 µM daunorubicin, 1 h, read-out: IC50, relative daunorubicin accumulation) does the source give for `CN1CCC(COc2cnc(-c3cccc(Cn4nc(-c5cccc(C#N)c5)ccc4=O)c3)nc2)CC1` [tepotinib, Tepotinib] here?
**A.** The IC50 was 1.28 µM.

**Q.** And the IC50 (ABCB1 [1]; 8 µM hoechst 33342, read-out: IC50, relative Hoechst 33342 accumulation)?
**A.** Its IC50 is 3.15 µM.

**Q.** And the IC50 (CYP2C8)?
**A.** Its IC50 is 20.4 µM.

**Q.** And the “Substrate affinity for ABCB1 (transport asymmetry)” value (ABCB1 [2])?
**A.** Its value is “ABCB1 substrate”.

**Q.** And the “Substrate affinity for ABCC1” value (ABCC1)?
**A.** Its value is “No substrate affinities”.

**Q.** What about the “Substrate affinity for ABCG2” value (ABCG2) of the same molecule?
**A.** The value was “No substrate affinities”.
